According to ChEMBL document CHEMBL1150682, “Modiolides A and B, two new 10-membered macrolides from a marine-derived fungus” (2003):
Converted amounts (≈) assume the structure as drawn.

Assays:
[1] = test system: Micrococcus luteus; test: Antimicrobial activity against Micrococcus luteus; type: functional
[2] = test system: Neurospora crassa; test: Antimicrobial activity against Neurospora crassa; type: functional

| MIC [1] [µg/mL] | MIC [2] [µg/mL] | Structure (SMILES) |
| --- | --- | --- |
| 16.7 (≈ 84.3 µM) | 33.3 (≈ 168 µM) | C[C@@H]1C[C@H](O)/C=C/[C@@H](O)/C=C\C(=O)O1 [MODIOLIDE A] |
| 16.7 (≈ 91.6 µM) | 33.3 (≈ 183 µM) | C[C@@H]1CC/C=C/[C@@H](O)/C=C\C(=O)O1 [MODIOLIDE B] |
